In patent US20110143948A1, “MOLECULAR SIGNATURES AND BIOMARKERS ASSOCIATED WITH MELANOMA AND METHODS OF USE THEREOF” (priority 2008, published 2011):

Tested on: ncRNAs (SEQ ID NO 28-89)
Experiment: ncRNA arrays of melanocytes, keratinocytes, normal skin, melanoma cell lines and patient samples
Parameters: species or system human
Details: for ncRNA array expression, patient 2: melanoma patient 2 sample compared to normal skin; for ncRNA array expression, patient 3: melanoma patient 3 sample compared to normal skin; for ncRNA array expression, patient 4: melanoma patient 4 sample compared to normal skin; for ncRNA array expression, patient 5: melanoma patient 5 sample compared to normal skin; for ncRNA array expression, patient 6: melanoma patient 6 sample compared to normal skin; for ncRNA array expression, patient 7: melanoma patient 7 sample compared to normal skin; for ncRNA array expression, patient 8: melanoma patient 8 sample compared to normal skin; for ncRNA array expression, patient 9: melanoma patient 9 sample compared to normal skin; for ncRNA array expression, patient 10: melanoma patient 10 sample compared to normal skin; for ncRNA array expression, patient 19: melanoma patient 19 sample compared to normal skin; for ncRNA array expression, patient 20: melanoma patient 20 sample compared to normal skin; for ncRNA array expression, patient 21: melanoma patient 21 sample compared to normal skin; for ncRNA array expression, patient 22: melanoma patient 22 sample compared to normal skin; for ncRNA array expression, patient 23: melanoma patient 23 sample compared to normal skin; for ncRNA array expression, patient 24: melanoma patient 24 sample compared to normal skin; for ncRNA array expression, patient 25: melanoma patient 25 sample compared to normal skin; for ncRNA array expression, patient 26: melanoma patient 26 sample compared to normal skin; for ncRNA array expression, patient 27: melanoma patient 27 sample compared to normal skin; for ncRNA array expression, patient 28: melanoma patient 28 sample compared to normal skin; for ncRNA array expression, patient 29: melanoma patient 29 sample compared to normal skin; for ncRNA array expression, patient 30: melanoma patient 30 sample compared to normal skin
Outline: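 Differential ncRNA expression was defined against melanocytes or normal skin after subtracting keratinocyte-specific signals, with confirmation by qRT-PCR and Northern blot. Samples were melanoma cell lines, patient tumours, melanocytes, keratinocytes and normal skin, hybridised to a >10,000-probe (>200 nt) ncRNA array that also carries RefSeq mRNA probes.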

SEQ ID NO 47 (GTATTTGTAATATTTGATTTGCTTTTAGCAGAGAAAACAATAAAAGAATCCAGGAAAAGT; listed as DNA, chemistry not given here; listed as Homo sapiens)
ncRNA array expression, patient 2: −2.442
ncRNA array expression, patient 3: −2.494
ncRNA array expression, patient 4: −2.265
ncRNA array expression, patient 5: −2.234
ncRNA array expression, patient 6: −2.076
ncRNA array expression, patient 7: −2.368
ncRNA array expression, patient 8: −1.927
ncRNA array expression, patient 9: −2.484
ncRNA array expression, patient 10: −1.685
ncRNA array expression, patient 19: −2.485
ncRNA array expression, patient 20: −2.495
ncRNA array expression, patient 21: −2.249
ncRNA array expression, patient 22: −2.41
ncRNA array expression, patient 23: −2.401
ncRNA array expression, patient 24: −2.489
ncRNA array expression, patient 25: −2.453
ncRNA array expression, patient 26: −2.486
ncRNA array expression, patient 27: −2.489
ncRNA array expression, patient 28: −2.481
ncRNA array expression, patient 29: −2.234
ncRNA array expression, patient 30: −1.529

SEQ ID NO 35 (GTTTCCATTGAAGAATATTACGCTCGGGGACAAGCCAGGTGCACGACCAAAAATTTAAAA; DNA, backbone and methylation of C not given here; listed as Homo sapiens)
ncRNA array expression, patient 2: 1.513
ncRNA array expression, patient 3: 3.848
ncRNA array expression, patient 4: 3.278
ncRNA array expression, patient 5: 2.521
ncRNA array expression, patient 6: 2.07
ncRNA array expression, patient 7: 3.025
ncRNA array expression, patient 8: 2.14
ncRNA array expression, patient 9: −0.1931
ncRNA array expression, patient 10: 3.606
ncRNA array expression, patient 19: 0.9237
ncRNA array expression, patient 20: 2.507
ncRNA array expression, patient 21: 2.618
ncRNA array expression, patient 22: 0.8167
ncRNA array expression, patient 23: 2.729
ncRNA array expression, patient 24: −2.783
ncRNA array expression, patient 25: 1.774
ncRNA array expression, patient 26: 3.301
ncRNA array expression, patient 27: 3.86
ncRNA array expression, patient 28: 4.108
ncRNA array expression, patient 29: 3.127
ncRNA array expression, patient 30: −0.8323

SEQ ID NO 46 (CTATTGGAGTGCATATAAATTCTTGATAGCACCAGTTCTCAAATATGAGGTGTTAAAAAC; listed as DNA, chemistry not given here; listed as Homo sapiens)
ncRNA array expression, patient 2: 0.198
ncRNA array expression, patient 3: 0.6718
ncRNA array expression, patient 4: 1.187
ncRNA array expression, patient 5: 0.9853
ncRNA array expression, patient 6: 0.04368
ncRNA array expression, patient 7: 0.7142
ncRNA array expression, patient 8: 1.688
ncRNA array expression, patient 9: 5.175
ncRNA array expression, patient 10: 1.916
ncRNA array expression, patient 19: 2.172
ncRNA array expression, patient 20: 0.395
ncRNA array expression, patient 21: 0.7531
ncRNA array expression, patient 22: −0.4275
ncRNA array expression, patient 23: 0.6081
ncRNA array expression, patient 24: 0.8675
ncRNA array expression, patient 25: 1.428
ncRNA array expression, patient 26: 2.919
ncRNA array expression, patient 27: 1.824
ncRNA array expression, patient 28: 1.253
ncRNA array expression, patient 29: 2.278
ncRNA array expression, patient 30: 0.4452

SEQ ID NO 51 (ATGTATTTTAGGTAATAAGATTTTTATCAATTGTGTCTTTTTCTTTCTTTGCTTTCTATA; listed as DNA, chemistry not given here; listed as Homo sapiens)
ncRNA array expression, patient 2: 0.8922
ncRNA array expression, patient 3: 2.683
ncRNA array expression, patient 4: 2.264
ncRNA array expression, patient 5: 1.042
ncRNA array expression, patient 6: 1.115
ncRNA array expression, patient 7: 1.14
ncRNA array expression, patient 8: 2.048
ncRNA array expression, patient 9: 0.7789
ncRNA array expression, patient 10: 0.8572
ncRNA array expression, patient 19: 0.7228
ncRNA array expression, patient 20: 1.113
ncRNA array expression, patient 21: 1.298
ncRNA array expression, patient 22: 0.5543
ncRNA array expression, patient 23: 0.1918
ncRNA array expression, patient 24: 1.761
ncRNA array expression, patient 25: 2.552
ncRNA array expression, patient 26: 1.145
ncRNA array expression, patient 27: 1.166
ncRNA array expression, patient 28: 0.879
ncRNA array expression, patient 29: 0.7193
ncRNA array expression, patient 30: −0.4325

SEQ ID NO 48 (ACTTATATTCAGAGCATGTGGATTGGGACTCTGAAGAACAACTTTATGGTGGACACCTTC; listed as DNA, chemistry not given here; listed as Homo sapiens)
ncRNA array expression, patient 2: 0.9515
ncRNA array expression, patient 3: 3.672
ncRNA array expression, patient 4: 3.353
ncRNA array expression, patient 5: 0.2362
ncRNA array expression, patient 6: −0.1733
ncRNA array expression, patient 7: 0.648
ncRNA array expression, patient 8: 3.309
ncRNA array expression, patient 9: −0.2759
ncRNA array expression, patient 10: 2.286
ncRNA array expression, patient 19: 3.38
ncRNA array expression, patient 20: 1.713
ncRNA array expression, patient 21: 1.144
ncRNA array expression, patient 22: −0.4681
ncRNA array expression, patient 23: −0.4589
ncRNA array expression, patient 24: 2.492
ncRNA array expression, patient 25: 4.7
ncRNA array expression, patient 26: 2.981
ncRNA array expression, patient 27: 4.712
ncRNA array expression, patient 28: 0.2102
ncRNA array expression, patient 29: 0.1927
ncRNA array expression, patient 30: −0.334

SEQ ID NO 72 (AATTACATATATTTAGCAGGATTTTTATTTGCCGTGATATATAGGATAATTTAGTCTTTG; listed as DNA, chemistry not given here; listed as Homo sapiens)
ncRNA array expression, patient 2: 2.217
ncRNA array expression, patient 3: 2.382
ncRNA array expression, patient 4: 2.566
ncRNA array expression, patient 5: 1.096
ncRNA array expression, patient 6: 2.336
ncRNA array expression, patient 7: 2.665
ncRNA array expression, patient 8: 3.323
ncRNA array expression, patient 9: −0.6629
ncRNA array expression, patient 10: 2.245
ncRNA array expression, patient 19: 0.2985
ncRNA array expression, patient 20: 1.011
ncRNA array expression, patient 21: 0.6264
ncRNA array expression, patient 22: 0.5499
ncRNA array expression, patient 23: 0.09129
ncRNA array expression, patient 24: 2.832
ncRNA array expression, patient 25: 3.664
ncRNA array expression, patient 26: 3.29
ncRNA array expression, patient 27: 2.308
ncRNA array expression, patient 28: 1.044
ncRNA array expression, patient 29: 2.583
ncRNA array expression, patient 30: −1.3285
